Test results reported in patent US20250236596A1, “HYDROXYLAMINE-BASED EGFR INHIBITORS FOR TREATMENT OF CANCER WITH BRAIN METASTASES” (University of Georgia Research Foundation, Inc., priority 2022, published 2025).

Legend:
[1] = test system: NCI-H3255 NSCLC cell line (EGFR L858R); experiment: CellTiter-Glo viability assay, NCI-H3255; assay type: cell-based; conditions: Homo sapiens, 72 h, read-out: antiproliferative IC50
Method: (§1) The A431, HCC827, SK-BR-3, ZR-75-30, AU565 and Caco-2 cell lines were obtained from ATCC. The NCI-H1975 cell line was obtained from SIBS. The NCI-H3255 cell line was obtained from CoBioer. Engineered Ba/F3 cell lines were obtained from Crown Bioscience. MCKII-MDR1 cells were obtained from the Netherlands Cancer Institute. HEK293 cells were obtained from Invitrogen. A431 cells were cultured in DMEM (Life Technologies) with 10% FBS. HCC827, NCI-H1975 and AU565 cells were cultured in RPMI1640 (Invitrogen) with 10% FBS. NCI-H3255 cells were cultured in BEGM (Lonza) with 10% FBS. Ba/F3 EGFR-del E746_A750/C797S and Ba/F3 EGFR-L858R/C797S cells were cultured in RPMI (Invitrogen) with 10% FBS. SK-BR-3 cells were cultured in McCoy's 5a (Invitrogen) with 10% FBS. ZR-75-30 cells were cultured in RPMI1640 (Invitrogen) with 20% FBS. BT474 cells were cultured in DMEM (Gibco) with 10% FBS and 10 μg/mL Insulin. Caco-2 and MCKII-MDR1 culture information is given in the permeability studies section. […]
(§2) Viability assays using A431, HCC827, NCI-H1975, NCI-H3255, Ba/F3 EGFR-del E746_A750/C797S, Ba/F3 EGFR-L858R/C797S, AU565, SK-BR-3 and ZR-75-30 cells were performed at Crown BioScience. […] Dose-response curves were generated and used to calculate the IC50 values which were calculated on GraphPad Prism from the non-linear regression equation fitted with a sigmoidal dose response and are presented as the mean±SEM.

CYP3A4 = CYP3A4 (Homo sapiens, UniProt P08684); experiment: Human CYP450 inhibition in human liver microsomes, CYP3A4; assay type: in vitro ADME; conditions: pooled human liver microsomes, probe midazolam (1 μM), 1′-hydroxylation
Chain of CYP3A4 (P08684 whole entry, canonical isoform): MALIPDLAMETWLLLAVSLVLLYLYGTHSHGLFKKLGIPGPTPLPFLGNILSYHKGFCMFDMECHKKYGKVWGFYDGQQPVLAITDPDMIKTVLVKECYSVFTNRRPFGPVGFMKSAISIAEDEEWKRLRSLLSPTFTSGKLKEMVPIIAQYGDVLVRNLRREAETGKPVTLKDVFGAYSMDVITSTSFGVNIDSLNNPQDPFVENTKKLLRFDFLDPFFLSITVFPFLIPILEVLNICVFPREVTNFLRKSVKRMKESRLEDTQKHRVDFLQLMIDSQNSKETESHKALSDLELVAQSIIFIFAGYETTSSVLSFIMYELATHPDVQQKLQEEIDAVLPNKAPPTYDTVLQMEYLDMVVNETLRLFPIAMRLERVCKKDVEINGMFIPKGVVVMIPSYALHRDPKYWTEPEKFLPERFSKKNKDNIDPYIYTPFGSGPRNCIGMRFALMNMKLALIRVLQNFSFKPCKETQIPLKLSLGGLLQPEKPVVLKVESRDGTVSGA
Method: Assessment of compound 15 was carried out at Pharmaron Inc. for its potential to inhibit cytochrome P450 (CYP) isoforms using human liver microsomes. The activities tested were CYP1A2-mediated phenacetin O-demethylation, CYP2C19-mediated (S)-mephenytoin 4′-hydroxylation, CYP2C9-mediated diclofenac 4′-hydroxylation, CYP2D6-mediated dextromethorphan O-demethylation and CYP3A4-mediated midazolam 1′-hydroxylation. Concentrations of substrates were phenacetin (40 μM), mephenytoin (50 μM), diclofenac (6 μM), dextromethorphan (2 μM) and midazolam (1 μM). Probe substrates phenacetin, mephenytoin and dextromethorphan were incubated at 37° for 20 min. Probe substrates diclofenac and midazolam were incubated at 37° for 5 min. […] The reactions were initiated by adding NADPH (1 mM final concentration) after a 5 min-preincubation and the assay was ran in duplicate (n=2). Samples were analyzed by UPLC-MS/MS.

[2] = Solubility in PBS at pH 7.4; assay type: physicochemical; conditions: compared to both 1 and 6; result in words
Method: Solubility was determined by Pharmaron Inc. and each compound was assessed in duplicate (n=2) by adding 15 μL of compound stock solution (10 mM in DMSO) into a 96-well plate along with 485 μL of buffer followed by shaking at 25° C., 1,100 rpm for 2 h. Wells were filtered and samples (5 μL) were taken followed by dilution with an equal volume of DMSO (5 μL) and 490 μL of aqueous solution. Samples were analyzed by LC-MS/MS.

HER2 = target: T1, HER2 (Homo sapiens, UniProt P04626); experiment: Follow-up KdELECT binding, HER2
T1 construct: purchased Eurofins DiscoverX (contract assay, KINOMEScan KdELECT)
T1 sequence (P04626 23-1255): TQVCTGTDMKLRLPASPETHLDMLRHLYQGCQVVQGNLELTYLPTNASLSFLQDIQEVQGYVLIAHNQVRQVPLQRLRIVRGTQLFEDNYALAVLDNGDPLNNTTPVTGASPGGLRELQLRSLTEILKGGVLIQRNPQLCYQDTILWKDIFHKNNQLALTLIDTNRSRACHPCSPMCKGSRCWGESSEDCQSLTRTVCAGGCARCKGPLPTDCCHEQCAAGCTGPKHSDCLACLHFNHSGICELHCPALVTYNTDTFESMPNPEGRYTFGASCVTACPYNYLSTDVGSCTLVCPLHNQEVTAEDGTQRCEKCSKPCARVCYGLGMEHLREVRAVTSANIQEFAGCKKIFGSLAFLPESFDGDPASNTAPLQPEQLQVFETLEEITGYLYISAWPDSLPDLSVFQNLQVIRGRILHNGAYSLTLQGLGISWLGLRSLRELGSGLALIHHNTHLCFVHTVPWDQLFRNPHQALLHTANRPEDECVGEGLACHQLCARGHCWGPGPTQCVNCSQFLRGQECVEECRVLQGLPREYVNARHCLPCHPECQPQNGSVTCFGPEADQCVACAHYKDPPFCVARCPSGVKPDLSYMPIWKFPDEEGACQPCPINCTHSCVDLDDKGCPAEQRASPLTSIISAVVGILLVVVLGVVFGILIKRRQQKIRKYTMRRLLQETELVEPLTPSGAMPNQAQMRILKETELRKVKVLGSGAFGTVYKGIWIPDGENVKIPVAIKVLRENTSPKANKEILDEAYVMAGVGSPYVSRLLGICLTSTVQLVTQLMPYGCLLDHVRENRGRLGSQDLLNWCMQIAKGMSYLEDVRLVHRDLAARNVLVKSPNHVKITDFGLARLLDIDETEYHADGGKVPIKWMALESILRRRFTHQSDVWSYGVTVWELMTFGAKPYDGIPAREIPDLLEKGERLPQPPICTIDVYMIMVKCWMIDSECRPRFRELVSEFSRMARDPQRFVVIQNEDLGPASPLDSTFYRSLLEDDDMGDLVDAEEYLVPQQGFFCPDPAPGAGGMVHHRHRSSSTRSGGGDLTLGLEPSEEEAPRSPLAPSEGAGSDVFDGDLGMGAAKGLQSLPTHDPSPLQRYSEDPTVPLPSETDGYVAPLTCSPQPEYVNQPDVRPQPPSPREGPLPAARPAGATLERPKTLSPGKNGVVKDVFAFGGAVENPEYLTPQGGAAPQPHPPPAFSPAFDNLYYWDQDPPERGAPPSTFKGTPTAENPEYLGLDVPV
Method: In vitro kinase activity (inhibitor binding constants (Kd) and biochemical inhibition (IC50's)) were assessed by Eurofins DiscoverX (Kd determinations) and Eurofins Cerep (biochemical IC50 determinations).

[3] = test system: Salmonella strains (TA98, TA100, TA1537 and TA1535); assay type: cell-based; conditions: bacterial cytotoxicity observed above
Method: Compounds were assessed for mutagenicity at Eurofins Panlabs. in 384-well plates using four Salmonella strains: TA98, to probe for frameshift mutation (with quercetin as control), TA100 and TA1535, to probe for base pair […] (with streptozotocin as control), and TA1537, to probe for frameshift mutations (with aminoacridine as control) as previously described.^21 Each compound was incubated at 37° C. for 96 h at four different concentrations (5, 10, 50, and 100 μM), with each concentration tested using 48 replicates, both with and without rat liver S9 metabolic activation. A concurrent bacterial cytotoxicity assay was ran at 0.6, 1.2, 2.5, 5, 10, 25, 50 and 100 μM to rule out false negatives. Bacterial cytotoxicity was expressed as percent of control growth (OD650). Compounds with growth of less than 60% control were flagged and considered bacterial cytotoxic. […] Significances of the positive counts between the treatment and control were determined using one-tailed Fisher's exact test.

[4] = test system: HCC827 NSCLC cells (EGFR del E746_A750); experiment: CellTiter-Glo viability assay, HCC827; assay type: cell-based; conditions: Homo sapiens; HCC827, EGFR del E746_A750, 72 h; read-out: antiproliferative IC50
Method: as §1, §2

Which IC50 [1] does the source give for `COc1cc2ncnc(Nc3cccc(Cl)c3F)c2cc1OCCON1CCN(C)CC1` [Compound 15, N-(3-chloro-2-fluorophenyl)-7-methoxy-6-(2-((4-methylpiperazin-1-yl)oxy)ethoxy)quinazolin-4-amine] here?
The IC50 was 7.2 nM.

And the IC50 at 5 min (CYP3A4)?
The IC50 at 5 min was > 30000 nM.

And the aqueous solubility [2]?
The aqueous solubility was “markedly improved aqueous solubility”.

And the Kd (HER2)?
The Kd was 21 nM.

What about the “concentration up to which negative ames result is valid” value [3] of the same compound?
Its value is “up to 50 uM”.

And the IC50 [4]?
The IC50 was 3.1 nM.
